From US9963456B2, “Pyrrolopyrimidine compound or salt thereof and compositions containing the pyrrolopyrimidine compound or salt thereof” (TAIHO PHARMACEUTICAL CO., LTD., priority 2014, dated 2018) come the findings set out here.

Where only a bound is given, the exact number is not on record here.

Data set [1] addresses NAE (heterodimer of APPBP1 and UBA3) (Homo sapiens (Human), UniProt Q8TBC4). Put plainly: Nedd8 conjugation inhibitory activity (AlphaScreen assay). The format is biochemical. As to conditions: purified NAE, GST-UBC12, Biotin-Nedd8, ATP.
Data set [2] relates to human acute lymphoblastic leukemia (ALL) CCRF-CEM cell lines. Briefly: Antitumor effect on tumor cells transplanted into mice 3. The format is in vivo. As to conditions: for T/C15 / RTV comparison with the Comparative Example / RTV comparison with the control on day 15 / BWC15 Mean ± SD: CCRF-CEM xenograft in nude mice; for T/C15 / BWC15 Mean ± SD: 50 mg/kg/day intravenous; for T/C15: administration days 1, 8, day 15; for RTV comparison with the Comparative Example / RTV comparison with the control on day 15: compound hydrochlorides intravenously, Dunnett's test; for BWC15 Mean ± SD: body weight change rate, days 1, 8, day 15. The method, then: The length and the width of the implanted tumor and the body weight were measured. The tumor volume (TV) was calculated using the following equation (equation D). TV(mm3)=(length×width^2)/2, wherein the unit of length and width is mm (equation D).
Thereafter, the length and the width of the tumor and the body weight (BWn) on day n were measured over time in the same manner, and the TVn of each mouse was calculated. Further, the relative tumor volume (RTVn) was calculated based on the TVn of each mouse using the following equation (equation E); the treatment/control (T/C) value (%) was calculated based on the mean RTVn of each drug administration group using the following equation (equation F); and the weight change rate (BWCn) was calculated using the following equation (equation G). RTVn=TVn/TV1 (equation E) T/Cn(%)=(mean RTV of each drug administration group on the last day of the test)/(mean RTV of the control group on the last day of the test)×100 (equation F) BWCn (%)=(BWn−BW1)/BW1×100 (equation G) FIGS. 1 and 2, and Table 21 below show the results.
The tumor growth inhibitory effects on human tumors were evaluated as in Test Example 5, except that the compound hydrochloride obtained in Example 122, the compound hydrochloride (Example 64), and human acute lymphoblastic leukemia (ALL) CCRF-CEM cell lines were used, and the animals were assigned to each group in accordance with a stratified randomization procedure when the TV reached 140 to 380 mm3.
At this time, the cell lines were washed in PBS, and suspended in 50% PBS and 50% Matrigel basement membrane matrix (#356237; produced by BD Biosciences) at a concentration of 1×10^8 cells/mL. 0.1 mL of this cell suspension was subcutaneously implanted to the right chest of 6-week-old BALB/cAJcl-nu/nu mice (nude mice) (produced by CLEA Japan, Inc.). The compound hydrochloride (Example 122) was intravenously administered in an amount of 5 mL per 1 kg of body weight on days 1 and 8, and the compound hydrochloride (Example 133) was intravenously administered in an amount of 5 mL per 1 kg of body weight on days 1 and 8.

The next data set deals with carbonic anhydrase II (Homo sapiens (Human), UniProt P00918). Put plainly: Carbonic anhydrase II enzyme activity inhibition (4-NPA esterase activity). The format is biochemical. The settings on record: 4-nitrophenyl acetate esterase activity, absorbance at 405 nm.

NAE (heterodimer of APPBP1 and UBA3), sequence (Q8TBC4 whole entry): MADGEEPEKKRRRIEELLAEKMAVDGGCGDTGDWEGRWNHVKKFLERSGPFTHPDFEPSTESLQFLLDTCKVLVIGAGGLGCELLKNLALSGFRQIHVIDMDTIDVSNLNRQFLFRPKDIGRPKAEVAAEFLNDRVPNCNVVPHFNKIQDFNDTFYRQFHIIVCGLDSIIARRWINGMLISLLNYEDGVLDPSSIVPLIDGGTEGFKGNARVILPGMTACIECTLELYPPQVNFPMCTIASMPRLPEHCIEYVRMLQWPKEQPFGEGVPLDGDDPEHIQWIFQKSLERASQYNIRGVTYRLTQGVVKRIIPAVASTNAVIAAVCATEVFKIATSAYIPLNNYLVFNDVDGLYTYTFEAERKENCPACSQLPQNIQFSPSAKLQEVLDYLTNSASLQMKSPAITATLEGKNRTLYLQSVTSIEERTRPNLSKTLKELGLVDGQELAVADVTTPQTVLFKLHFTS
NAE (heterodimer of APPBP1 and UBA3), sequence (Q13564 whole entry partner): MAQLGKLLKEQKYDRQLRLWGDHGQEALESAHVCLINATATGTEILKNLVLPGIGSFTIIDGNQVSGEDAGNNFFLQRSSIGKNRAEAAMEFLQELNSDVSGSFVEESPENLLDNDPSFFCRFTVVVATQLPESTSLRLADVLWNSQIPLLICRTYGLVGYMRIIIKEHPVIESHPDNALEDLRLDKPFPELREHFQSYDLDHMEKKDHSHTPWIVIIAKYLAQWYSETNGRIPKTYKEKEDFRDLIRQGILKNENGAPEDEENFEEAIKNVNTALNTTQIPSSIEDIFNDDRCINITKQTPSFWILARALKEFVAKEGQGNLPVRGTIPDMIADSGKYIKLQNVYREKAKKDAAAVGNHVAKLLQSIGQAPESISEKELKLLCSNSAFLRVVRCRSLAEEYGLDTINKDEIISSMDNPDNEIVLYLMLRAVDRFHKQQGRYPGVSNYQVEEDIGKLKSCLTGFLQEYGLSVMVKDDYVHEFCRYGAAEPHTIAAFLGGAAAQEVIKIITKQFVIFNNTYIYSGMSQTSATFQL

Broadly, the IC50 is the concentration that inhibits the measured activity by half. A lower IC50 goes with inhibition by little substance. The compound `CN1CCOc2c1ccc(F)c2C#Cc1cn([C@@H]2C[C@H](CNS(N)(=O)=O)[C@@H](O)[C@H]2O)c2ncnc(N)c12` [Example 122, 8-[2-[4-amino-7-[(1R,2S,3R,4R)-2,3-dihydroxy-4-[(sulfamoylamino)methyl]cyclopentyl]pyrrolo[2,3-d]pyrimidin-5-yl]ethynyl]-7-fluoro-4-methyl-2,3-dihydro-1,4-benzoxazine] displayed an IC50 in data set [1] of 0.02 µM. In data set [2], the T/C15 worked out at 6%, the “RTV comparison with the Comparative Example” value was “significantly lower than that of the Comparative Example”, the “RTV comparison with the control on day 15” value (“RTV comparison … on day 15” for short) was “significantly lower than that of the control” and the “BWC15 Mean ± SD” value stood at 6.0 ± 4.5%. Moreover, the IC50 at carbonic anhydrase II is > 1 µM.
On to `CCSc1cccc(F)c1C#Cc1cn([C@@H]2O[C@H](CNS(N)(=O)=O)[C@@H](O)[C@H]2O)c2ncnc(N)c12` [Example 66, 4-Amino-7-[(2R,3R,4S,5R)-3,4-dihydroxy-5-[(sulfamoylamino)methyl]tetrahydrofuran-2-yl]-5-[2-(2-ethylsulfanyl-6-fluoro-phenyl)ethynyl]pyrrolo[2,3-d]pyrimidine], for which the IC50 is 0.0071 µM in data set [1] and > 1 µM on carbonic anhydrase II.
Taken in the same sequence, the figures for `Nc1ncnc2c1c(C#Cc1c(F)cc(N3CC[C@@H](F)C3)cc1F)cn2[C@@H]1O[C@H](CNS(N)(=O)=O)[C@@H](O)[C@H]1O` [Example 29, 4-Amino-5-[2-[2,6-difluoro-4-[(3R)-3-fluoropyrrolidin-1-yl]phenyl]ethynyl]-7-[(2R,3R,4S,5R)-3,4-dihydroxy-5-[(sulfamoylamino)methyl]tetrahydrofuran-2-yl]pyrrolo[2,3-d]pyrimidine] were 0.0071 µM and > 1 µM.
`CN1CCOc2c1ccc(F)c2C#Cc1cn([C@@H]2O[C@H](CNS(N)(=O)=O)[C@@H](O)[C@H]2O)c2ncnc(N)c12` [Example 64, 8-[2-[4-Amino-7-[(2R,3R,4S,5R)-3,4-dihydroxy-5-[(sulfamoylamino)methyl]tetrahydrofuran-2-yl]pyrrolo[2,3-d]pyrimidin-5-yl]ethynyl]-7-fluoro-4-methyl-2,3-dihydro-1,4-benzoxazine] showed an IC50 in data set [1] of 0.0094 µM. Further, in data set [2], the T/C15 amounted to 8%, the “RTV comparison with the Comparative Example” value is given as “significantly lower than that of the Comparative Example”, the “RTV comparison … on day 15” value is recorded as “significantly lower than that of the control” and the “BWC15 Mean ± SD” value was found to be 4.1 ± 1.6%. For the same compound, on carbonic anhydrase II, the half-inhibitory concentration (IC50) is > 1 µM.
Take `Nc1ncnc2c1c(C#CC1(c3ccccc3)CC1)cn2[C@@H]1O[C@H](CNS(N)(=O)=O)[C@@H](O)[C@H]1O` [Example 10, 4-Amino-7-[(2R,3R,4S,5R)-3,4-dihydroxy-5-[(sulfamoylamino)methyl]tetrahydrofuran-2-yl]-5-[2-(1-phenylcyclopropyl)ethynyl]pyrrolo[2,3-d]pyrimidine]: the IC50 in data set [1] was 0.024 µM; against carbonic anhydrase II, > 1 µM.
Taken in the same sequence, the figures for `COc1ccccc1C#Cc1cn([C@@H]2O[C@H](CNS(N)(=O)=O)[C@@H](O)[C@H]2O)c2ncnc(N)c12` [Example 47, 4-Amino-7-[(2R,3R,4S,5R)-3,4-dihydroxy-5-[(sulfamoylamino)methyl]tetrahydrofuran-2-yl]-5-[2-(2-methoxyphenyl)ethynyl]pyrrolo[2,3-d]pyrimidine] were 0.0093 µM and > 1 µM.
For `CNc1cc(F)c(C#Cc2cn([C@@H]3O[C@H](CNS(N)(=O)=O)[C@@H](O)[C@H]3O)c3ncnc(N)c23)c(F)c1` [Example 25, 4-Amino-5-[2-[2,6-difluoro-4-(methylamino)phenyl]ethynyl]-7-[(2R,3R,4S,5R)-3,4-dihydroxy-5-[(sulfamoylamino)methyl]tetrahydrofuran-2-yl]pyrrolo[2,3-d]pyrimidine] the same measures were 0.0048 µM and > 1 µM.
With `Nc1ncnc2c1c(C#Cc1cccc3ccccc13)cn2[C@@H]1O[C@H](COS(N)(=O)=O)[C@@H](O)[C@H]1O` [Example 133, [(2R,3S,4R,5R)-5-[4-Amino-5-[2-(1-naphthyl)ethynyl]pyrrolo[2,3-d]pyrimidin-7-yl]-3,4-dihydroxy-tetrahydrofuran-2-yl]methyl sulfamate], the IC50 in data set [1] is 0.025 µM. In data set [2], the “RTV comparison … on day 15” value is “significantly lower than that of the control”. Moreover, the “change of the body weight compared with the control” value in data set [2] (CCRF-CEM xenograft mice) is listed as “almost the same as that of the control”.
Take `Cc1ccccc1-c1nc(-c2cn([C@@H]3O[C@H](CNS(N)(=O)=O)[C@@H](O)[C@H]3O)c3ncnc(N)c23)cs1` [Example 2, 4-[4-Amino-7-[(2R,3R,4S,5R)-3,4-dihydroxy-5-[(sulfamoylamino)methyl]tetrahydrofuran-2-yl]pyrrolo[2,3-d]pyrimidin-5-yl]-2-(o-tolyl)thiazole]: the IC50 in data set [1] is 0.0071 µM; on carbonic anhydrase II, > 1 µM.
Taken in the same sequence, the figures for `CCCOc1cccc(F)c1C#Cc1cn([C@@H]2O[C@H](CNS(N)(=O)=O)[C@@H](O)[C@H]2O)c2ncnc(N)c12` [Example 60, 4-Amino-7-[(2R,3R,4S,5R)-3,4-dihydroxy-5-[(sulfamoylamino)methyl]tetrahydrofuran-2-yl]-5-[2-(2-fluoro-6-propoxy-phenyl)ethynyl]pyrrolo[2,3-d]pyrimidine] were 0.0085 µM and > 1 µM.
For `CCS(=O)(=O)c1cccc(F)c1C#Cc1cn([C@H]2C[C@H](O)[C@@H](CNS(N)(=O)=O)O2)c2ncnc(N)c12` [Example 143, 4-Amino-5-[2-(2-ethylsulfonyl-6-fluoro-phenyl)ethynyl]-7-[(2R,4S,5R)-4-hydroxy-5-[(sulfamoylamino)methyl]tetrahydrofuran-2-yl]pyrrolo[2,3-d]pyrimidine] the same measures were 0.024 µM and > 1 µM.
For `Nc1ncnc2c1c(C#Cc1ccc(OCc3ccccc3)cn1)cn2[C@@H]1O[C@H](CNS(N)(=O)=O)[C@@H](O)[C@H]1O` [Example 52, 4-Amino-5-[2-(5-benzyloxy-2-pyridyl)ethynyl]-7-[(2R,3R,4S,5R)-3,4-dihydroxy-5-[(sulfamoylamino)methyl]tetrahydrofuran-2-yl]pyrrolo[2,3-d]pyrimidine] the same measures were 0.008 µM and > 1 µM.
For `Nc1ncnc2c1c(C#Cc1c(F)cc(N3CCC3)cc1F)cn2[C@@H]1O[C@H](CNS(N)(=O)=O)[C@@H](O)[C@H]1O` [Example 43, 4-amino-5-[2-[4-(azetidin-1-yl)-2,6-difluoro-phenyl]ethynyl]-7-[(2R,3R,4S,5R)-3,4-dihydroxy-5-[(sulfamoylamino)methyl]tetrahydrofuran-2-yl]pyrrolo[2,3-d]pyrimidine], the IC50 was 0.0076 µM in data set [1] and > 1 µM against carbonic anhydrase II.
Taken in the same sequence, the figures for `Nc1ncnc2c1c(C#Cc1ccccc1F)cn2[C@@H]1O[C@H](CNS(N)(=O)=O)[C@@H](O)[C@H]1O` [Example 46, 4-Amino-7-[(2R,3R,4S,5R)-3,4-dihydroxy-5-[(sulfamoylamino)methyl]tetrahydrofuran-2-yl]-5-[2-(2-fluorophenyl)ethynyl]pyrrolo[2,3-d]pyrimidine] were 0.013 µM and > 1 µM.
